Results taken from US9221810B2, “Substituted bicyclic aromatic compounds as S-nitrosoglutathione reductase inhibitors” (Nivalis Therapeutics, Inc., priority 2010, dated 2015).

How the values were obtained:
[1] = system: acute dextran sodium sulfate (DSS)-induced IBD; experiment: Acute prophylactic model of DSS-induced IBD in mice; type: in vivo, male C57Bl/6 mice
Source text: Acute and chronic models of dextran sodium sulfate (DSS)-induced IBD in mice were used to explore efficacy of GSNORi against this disease. Acute and chronic DSS-induced IBD are widely used and well characterized models that induce pathological changes in the colon similar to those observed in the human disease. In these models and in human disease, epithelial cells within the crypts of the colon are disrupted, leading to dysfunction of the epithelial barrier and the ensuing tissue inflammation, edema, and ulceration. GSNORi therapy may benefit IBD by restoring s-nitrosoglutathione (GSNO) levels, and thus prevent or reverse the epithelial barrier dysfunction. Experimental IBD was induced by administration of DSS in the drinking water of male C57Bl/6 mice (N=8 to 10 mice per group) for 6 consecutive days. GSNORi was dosed orally at doses of 0.1 to 10 mg/kg/day for 10 days starting two days prior to and continuing two days post DSS exposure. Two days post DSS exposure, the effect of GSNORi was assessed in a blinded fashion via endoscopy and histopathology using a five point scale ranging from a score=0 (normal tissue) through a score=4 (ulcerative tissue damage and marked pathological changes). Levels of circulating cytokines involved in inflammatory pathways were also assessed. The effect of GSNORi was compared to vehicle treated controls. The corticosteroid, prednisolone, was used as the positive control in this study and was administered daily at 3 mg/kg/day via oral dosing. Naïve mice (N=5) were also assessed as a normal tissue control.

[2] = system: cigarette smoke-induced COPD (subchronic 11 day); experiment: Subchronic (11 day) cigarette smoke exposure COPD model; type: in vivo, female C57Bl/6 mice
Method: The efficacy of GSNOR inhibitors was assessed in a mouse model of chronic obstructive pulmonary disease (COPD) induced by short duration (4 days or 11 days) of exposure to cigarette smoke. Infiltration of inflammatory cells into the bronchoalveolar lavage fluid (BALF) and BALF levels of chemokines involved in inflammation and tissue turnover/repair were measured to assess the influences of GSNOR inhibitors on some of the early events associated with the initiation and progression of COPD.
Efficacy of GSNOR inhibitors against COPD was explored using acute (4 day) and subchronic (11 day) models of cigarette smoke-induced COPD in mice. […] In animal models, changes in lung pathology are only evident after extended (several months) duration of exposure to cigarette smoke, thus making chronic models prohibitive as effective screening tools. More recently, models exploring inflammatory responses after short duration (2 weeks or less) of smoke exposure in mice have been utilized as tools for screening efficacy and mechanisms of action of novel therapeutics against COPD. The key roles of inflammation in the initiation and progression of COPD, make these short duration models relevant for initial tests of efficacy of novel therapeutics.
Subchronic (11 Day) Smoke Exposure Model: Female C57Bl/6 mice (N=10 per group) were exposed to cigarette smoke generated from Marlboro 100 cigarettes without filters. Exposure times were 25 min. on study day 1, 35 min. on study day 2, and 45 min. on study days 3 to 11. GSNOR inhibitors were administered one hour prior to smoke exposure on each day. GSNOR inhibitors were dosed orally at 1 to 10 mg/kg/day for 11 days. The effects of GSNOR inhibitors were assessed by quantitating the number of total cells, and leukocytes differentials in the BALF via light microscopy at 24 h after the last exposure. The effect of GSNOR inhibitors were compared to vehicle treated controls and expressed as percent inhibition of the cigarette smoke induced increases in BALF cell numbers. Roflumilast was used as the positive control for the study and was dosed at 5 mg/kg/day. A group of naïve mice (N=10) was exposed to air and dosed with vehicle as a negative control for the study.

[3] = oral 10 mg/kg/day for 10 consecutive days, prophylactic

O=C(O)c1ccc(-c2ccc3cc(O)ccc3n2)c(Cl)c1 [Example 8, 3-chloro-4-(6-hydroxyquinolin-2-yl)benzoic acid]
decrease of percent of mice with severe colon injury scores via endoscopy [1, 3]: 44 % of vehicle control
decrease of percent of mice with severe colon injury scores via histopathology [1, 3]: 26 % of vehicle control
dose response of effect ([2]; 1, 5, or 10 mg/kg/day): no dose response of effect
effects compared to roflumilast (positive control) ([2]; subchronic 11 day model, roflumilast 5 mg/kg/day): comparable to those of roflumilast

O=C(O)c1ccc(-c2ccc3cc(O)ccc3n2)cc1 [Example 3, 4-(6-hydroxyquinolin-2-yl)benzoic acid]
circulating inflammatory cytokines ([1]; acute DSS model, oral dosing): restored circulating inflammatory cytokines towards levels observed in untreated naïve mice
effects compared to prednisolone (positive control) ([1]; prednisolone 3 mg/kg/day oral): comparable to or greater than those observed for prednisolone
inhibition of lymphocytes in BALF ([2]; oral 5 mg/kg/day): 46%
inhibition of macrophages in BALF ([2]; oral 5 mg/kg/day): 23%
inhibition of neutrophils in BALF ([2]; oral 5 mg/kg/day): 29%
inhibition of total cells in BALF ([2]; oral 5 mg/kg/day): 22%
inhibition of smoke-induced increase in eosinophils in BALF ([2]; oral 10 mg/kg/day for 11 days): 70%
inhibition of smoke-induced increase in lymphocytes in BALF ([2]; oral 10 mg/kg/day for 11 days): 49%
inhibition of smoke-induced increase in macrophages in BALF ([2]; oral 10 mg/kg/day for 11 days): 24%
inhibition of smoke-induced increase in neutrophils in BALF ([2]; oral 10 mg/kg/day for 11 days): 41%
inhibition of smoke-induced increase in total cells in BALF ([2]; oral 10 mg/kg/day for 11 days): 25%
